Data taken from ChEMBL document CHEMBL1135585, “Mixed steroidal 1,2,4,5-tetraoxanes: antimalarial and antimycobacterial activity” (J Med Chem, 2002).
pIC50: −log10 of the molar value.

Tests used:
Plasmodium falciparum [1] = assay: microbe, parasite or virus in culture
Description: (§1) In vitro inhibitory activity against chloroquine-sensitive Plasmodium falciparum African D6

Plasmodium falciparum [2] = assay: microbe, parasite or virus in culture; remark: listed apart in the source
Description: (§2) In vitro inhibitory activity against chloroquine-resistant Plasmodium falciparum W2 Indochina

Plasmodium falciparum [3] = tested on: Plasmodium falciparum
Description: as §1

Plasmodium falciparum [4] = tested on: Plasmodium falciparum; remark: listed apart in the source
Description: as §2

| SMILES | pIC50 (Plasmodium falciparum [1]) | pIC50 (Plasmodium falciparum [2]) | pIC50 (Plasmodium falciparum [3]) | pIC50 (Plasmodium falciparum [4]) |
| --- | --- | --- | --- | --- |
| COC(=O)CCC(C)C1CC[C@H]2[C@@H]3[C@H](OC(C)=O)C[C@@H]4CC5(CC[C@]4(C)[C@H]3C[C@H](OC(C)=O)[C@]12C)OOC1(CCCCC1C)OO5 (stereo partly drawn) | 7.57 | 7.81 | – | – |
| CCNC(=O)CCC(C)C1CC[C@H]2[C@@H]3[C@H](OC(C)=O)C[C@@H]4CC5(CC[C@]4(C)[C@H]3C[C@H](OC(C)=O)[C@]12C)OOC1(CCCCC1C)OO5 (stereo partly drawn) | 7.90 | 8.16 | – | – |
| CNC(=O)CCC(C)C1CC[C@H]2[C@@H]3[C@H](OC(C)=O)C[C@@H]4CC5(CC[C@]4(C)[C@H]3C[C@H](OC(C)=O)[C@]12C)OOC1(CCCCC1C)OO5 (stereo partly drawn) | 7.82 | 8.00 | – | – |
| COC(=O)CCC(C)C1CC[C@H]2[C@@H]3[C@H](OC(C)=O)C[C@@H]4CC5(CC[C@]4(C)[C@H]3C[C@H](OC(C)=O)[C@]12C)OOC1(CC(C)CCC1C(C)C)OO5 (stereo partly drawn) | 6.81 | 7.14 | – | – |
| CC(=O)O[C@H]1C[C@H]2[C@@H]([C@H](OC(C)=O)C[C@@H]3CC4(CC[C@@]32C)OOC2(CCCCC2C)OO4)[C@@H]2CCC(C(C)CCC(N)=O)[C@@]12C (stereo partly drawn) | 7.76 | 7.95 | – | – |
| CCCNC(=O)CCC(C)C1CC[C@H]2[C@@H]3[C@H](OC(C)=O)C[C@@H]4CC5(CC[C@]4(C)[C@H]3C[C@H](OC(C)=O)[C@]12C)OOC1(CCCCC1C)OO5 (stereo partly drawn) | 7.88 | 8.03 | – | – |
| COC(=O)CCC(C)C1CC[C@H]2[C@@H]3[C@H](OC(C)=O)C[C@@H]4CC5(CC[C@]4(C)[C@H]3C[C@H](OC(C)=O)[C@]12C)OOC1(OO5)C(C)CCCC1C (stereo partly drawn) | 7.51 | 6.45 | – | – |
| CC(=O)O[C@H]1C[C@H]2[C@@H]([C@H](OC(C)=O)C[C@@H]3CC4(CC[C@@]32C)OOC2(CCCCC2C)OO4)[C@@H]2CCC(C(C)CCC(=O)O)[C@@]12C (stereo partly drawn) | 7.17 | 7.43 | – | – |
| COC(=O)CCC(C)C1CC[C@H]2[C@@H]3[C@H](OC(C)=O)C[C@@H]4CC5(CC[C@]4(C)[C@H]3C[C@H](OC(C)=O)[C@]12C)OOC1(CCCCCCC1)OO5 (stereo partly drawn) | 7.31 | 7.70 | – | – |
| CC(=O)O[C@H]1C[C@H]2[C@@H]([C@H](OC(C)=O)C[C@@H]3CC4(CC[C@@]32C)OOC2(CCCCC2)OO4)[C@@H]2CCC(C(C)CCC(=O)O)[C@@]12C (stereo partly drawn) | 7.93 | 7.72 | – | – |
| COC(=O)CCC(C)C1CC[C@H]2[C@@H]3[C@H](OC(C)=O)C[C@@H]4CC5(CC[C@]4(C)[C@H]3C[C@H](OC(C)=O)[C@]12C)OOC1(CCCCC1)OO5 (stereo partly drawn) | 7.67 | 7.77 | – | – |
| COC(=O)CNC(=O)CCC(C)C1CC[C@H]2[C@@H]3[C@H](OC(C)=O)C[C@@H]4CC5(CC[C@]4(C)[C@H]3C[C@H](OC(C)=O)[C@]12C)OOC1(CCCCC1)OO5 (stereo partly drawn) | 7.66 | 7.97 | – | – |
| COC(=O)CCC(C)C1CC[C@H]2[C@@H]3[C@H](OC(C)=O)C[C@@H]4CC5(CC[C@]4(C)[C@H]3C[C@H](OC(C)=O)[C@]12C)OOC1(CCCC1)OO5 (stereo partly drawn) | 7.41 | 7.56 | – | – |
| CCCNC(=O)CCC(C)C1CC[C@H]2[C@@H]3[C@H](OC(C)=O)C[C@@H]4CC5(CC[C@]4(C)[C@H]3C[C@H](OC(C)=O)[C@]12C)OOC1(CCCCC1)OO5 (stereo partly drawn) | 7.83 | 8.17 | – | – |
| CC(=O)O[C@H]1C[C@H]2[C@@H]([C@H](OC(C)=O)C[C@@H]3CC4(CC[C@@]32C)OOC2(CCCCC2)OO4)[C@@H]2CCC(C(C)CCC(N)=O)[C@@]12C (stereo partly drawn) | 7.93 | 8.32 | – | – |
| CCC1CCC2(CC1)OOC1(CC[C@@]3(C)[C@H](C[C@@H](OC(C)=O)[C@@H]4[C@@H]3C[C@H](OC(C)=O)[C@]3(C)C(C(C)CCC(N)=O)CC[C@@H]43)C1)OO2 (mixture of isomers; 20) | – | – | 8.08 | 7.97 |
| CCC1CCC2(CC1)OOC1(CC[C@@]3(C)[C@H](C[C@@H](OC(C)=O)[C@@H]4[C@@H]3C[C@H](OC(C)=O)[C@]3(C)C(C(C)CCC(=O)NC)CC[C@@H]43)C1)OO2 (mixture of isomers; 21) | – | 8.11 | 8.14 | – |
| CCNC(=O)CCC(C)C1CC[C@H]2[C@@H]3[C@H](OC(C)=O)C[C@@H]4CC5(CC[C@]4(C)[C@H]3C[C@H](OC(C)=O)[C@]12C)OOC1(CCC(CC)CC1)OO5 (mixture of isomers; 22) | 7.70 | 8.02 | – | – |
| CCCNC(=O)CCC(C)C1CC[C@H]2[C@@H]3[C@H](OC(C)=O)C[C@@H]4CC5(CC[C@]4(C)[C@H]3C[C@H](OC(C)=O)[C@]12C)OOC1(CCC(CC)CC1)OO5 (mixture of isomers; 23) | – | – | 8.08 | 8.35 |

| SMILES | pIC50 (Plasmodium falciparum [1]) | pIC50 (Plasmodium falciparum [2]) | pIC50 (Plasmodium falciparum [3]) | pIC50 (Plasmodium falciparum [4]) |
| --- | --- | --- | --- | --- |
| CCC1CCC2(CC1)OOC1(CC[C@@]3(C)[C@H](C[C@@H](OC(C)=O)[C@@H]4[C@@H]3C[C@H](OC(C)=O)[C@]3(C)C(C(C)CCC(N)=O)CC[C@@H]43)C1)OO2 (mixture of isomers; 24) | – | 7.90 | 7.51 | – |
| CCC1CCC2(CC1)OOC1(CC[C@@]3(C)[C@H](C[C@@H](OC(C)=O)[C@@H]4[C@@H]3C[C@H](OC(C)=O)[C@]3(C)C(C(C)CCC(=O)NC)CC[C@@H]43)C1)OO2 (mixture of isomers; 25) | – | – | 7.55 | 8.21 |
| CCNC(=O)CCC(C)C1CC[C@H]2[C@@H]3[C@H](OC(C)=O)C[C@@H]4CC5(CC[C@]4(C)[C@H]3C[C@H](OC(C)=O)[C@]12C)OOC1(CCC(CC)CC1)OO5 (mixture of isomers; 26) | – | – | 7.64 | 7.74 |
| CCCNC(=O)CCC(C)C1CC[C@H]2[C@@H]3[C@H](OC(C)=O)C[C@@H]4CC5(CC[C@]4(C)[C@H]3C[C@H](OC(C)=O)[C@]12C)OOC1(CCC(CC)CC1)OO5 (mixture of isomers; 27) | – | – | 7.05 | 6.91 |
| CCC1CCC2(CC1)OOC1(CC[C@@]3(C)[C@H](C[C@@H](OC(C)=O)[C@@H]4[C@@H]3C[C@H](OC(C)=O)[C@]3(C)C(C(C)CCC(=O)OC)CC[C@@H]43)C1)OO2 (single isomer, unassigned; 3i) | – | – | 8.17 | 7.81 |
| CCC1CCC2(CC1)OOC1(CC[C@@]3(C)[C@H](C[C@@H](OC(C)=O)[C@@H]4[C@@H]3C[C@H](OC(C)=O)[C@]3(C)C(C(C)CCC(=O)OC)CC[C@@H]43)C1)OO2 (single isomer, unassigned; 3j) | – | 7.55 | 7.75 | – |
| COC(=O)CCC(C)C1CC[C@H]2[C@@H]3[C@H](OC(C)=O)C[C@@H]4CC5(CC[C@]4(C)[C@H]3C[C@H](OC(C)=O)[C@]12C)OOC1(CCC(C)CC1)OO5 (stereo in doubt; 3h) | – | – | 7.61 | 7.88 |
| COC(=O)CCC(C)C1CC[C@H]2[C@@H]3[C@H](OC(C)=O)C[C@@H]4CC5(CC[C@]4(C)[C@H]3C[C@H](OC(C)=O)[C@]12C)OOC1(CCC(C(C)(C)C)CC1)OO5 (stereo in doubt; 3k) | – | – | 6.97 | 7.28 |
| COC(=O)CCC(C)C1CC[C@H]2[C@@H]3[C@H](OC(C)=O)C[C@@H]4CC5(CC[C@]4(C)[C@H]3C[C@H](OC(C)=O)[C@]12C)OOC1(CCC(C(C)(C)C)CC1)OO5 (stereo in doubt; 3l) | – | 7.56 | 7.29 | – |
| CC(=O)O[C@H]1C[C@H]2[C@@H]([C@H](OC(C)=O)C[C@@H]3CC4(CC[C@@]32C)OOC2(CCC(C)CC2)OO4)[C@@H]2CCC(C(C)CCC(=O)O)[C@@]12C (stereo in doubt; 4h) | – | – | 7.51 | 7.75 |
| CCC1CCC2(CC1)OOC1(CC[C@@]3(C)[C@H](C[C@@H](OC(C)=O)[C@@H]4[C@@H]3C[C@H](OC(C)=O)[C@]3(C)C(C(C)CCC(=O)O)CC[C@@H]43)C1)OO2 (stereo in doubt; 4i) | 8.24 | 8.14 | – | – |
| CCC1CCC2(CC1)OOC1(CC[C@@]3(C)[C@H](C[C@@H](OC(C)=O)[C@@H]4[C@@H]3C[C@H](OC(C)=O)[C@]3(C)C(C(C)CCC(=O)O)CC[C@@H]43)C1)OO2 (stereo in doubt; 4j) | – | – | 8.01 | 7.84 |
| CC(=O)O[C@H]1C[C@H]2[C@@H]([C@H](OC(C)=O)C[C@@H]3CC4(CC[C@@]32C)OOC2(CCC(C)CC2)OO4)[C@@H]2CCC(C(C)CCC(N)=O)[C@@]12C (stereo in doubt; 16) | – | – | 7.70 | 7.85 |
| CNC(=O)CCC(C)C1CC[C@H]2[C@@H]3[C@H](OC(C)=O)C[C@@H]4CC5(CC[C@]4(C)[C@H]3C[C@H](OC(C)=O)[C@]12C)OOC1(CCC(C)CC1)OO5 (stereo in doubt; 17) | – | – | 7.78 | 7.93 |
| CCNC(=O)CCC(C)C1CC[C@H]2[C@@H]3[C@H](OC(C)=O)C[C@@H]4CC5(CC[C@]4(C)[C@H]3C[C@H](OC(C)=O)[C@]12C)OOC1(CCC(C)CC1)OO5 (stereo in doubt; 18) | – | – | 7.81 | 8.00 |
| CCCNC(=O)CCC(C)C1CC[C@H]2[C@@H]3[C@H](OC(C)=O)C[C@@H]4CC5(CC[C@]4(C)[C@H]3C[C@H](OC(C)=O)[C@]12C)OOC1(CCC(C)CC1)OO5 (stereo in doubt; 19) | – | – | 7.07 | 7.08 |
| C[C@@H]1CC[C@H]2[C@@H](C)C(=O)O[C@@H]3O[C@@]4(C)CC[C@@H]1[C@]32OO4 [ARTEMISININ] | 8.08 | 8.14 | – | – |
| OC(c1cc(C(F)(F)F)nc2c(C(F)(F)F)cccc12)C1CCCCN1 (stereo not drawn) [MEFLOQUINE] | 7.55 | – | – | – |
